Literature values as cited in paper PMC6721965 (Biochimica et biophysica acta. Biomembranes, 2019).

System: bacteria
Conditions: classification of parent peptides used for hybrid design; ref [4]-[8]

Sequence	Primary cellular localization pattern
ARDNKKTRIWPRHLQLAVRN [DesHDAP1]	membrane translocation
GIGKWLHSAKKFGKAFVGEIMNS [magainin 2]	membrane localization/permeabilization
KGRGKQGGKVRWKAKTRSS [parasin]	membrane localization/permeabilization
TRSSRAGLQWPVGRVHRLLRK [buforin II (BF2), buforin II]	membrane translocation
